SMILES	melting point
O=C1NC(=O)c2c1c(-c1ccccc1Cl)cc1c2c(Br)cn1CCCN1CCOCC1 [Example 139, 8-Bromo-4-(2-chlorophenyl)-6-(3-morpholin-4-ylpropyl)-6H-2,6-diaza-as-indacene-1,3-dione]	117 to 120 °C
CN(C)CCCn1cc(Br)c2c3c(c(-c4ccccc4Cl)cc21)C(=O)NC3=O [Example 140, 8-Bromo-4-(2-chlorophenyl)-6-(3-dimethylaminopropyl)-6H-2,6-diaza-as-indacene-1,3-dione]	160 to 162 °C
CCCN(CCC)CCCn1cc(Br)c2c3c(c(-c4ccccc4Cl)cc21)C(=O)NC3=O [Example 141, 8-Bromo-4-(2-chlorophenyl)-6-(3-dipropylaminopropyl)-6H-2,6-diaza-as-indacene-1,3-dione]	173 to 175 °C
O=C1NC(=O)c2c1c(-c1ccccc1Cl)cc1c2ccn1CCN1CCCC1 [Example 142, 4-(2-Chlorophenyl)-6-(2-pyrrolidin-1-ylethyl)-6H-2,6-diaza-as-indacene-1,3-dione]	208 to 209 °C
C=Cc1cn(C)c2cc(-c3ccccc3Cl)c3c(c12)C(=O)NC3=O [Example 145, 4-(2-Chlorophenyl)-6-methyl-8-vinyl-6H-2,6-diaza-as-indacene-1,3-dione]	200 to 205 °C
Cn1cc(C(O)CO)c2c3c(c(-c4ccccc4Cl)cc21)C(=O)NC3=O (stereo not drawn) [Example 146, 4-(2-Chlorophenyl)-8-(1,2-dihydroxyethyl)-6-methyl-6H-2,6-diaza-as-indacene-1,3-dione]	179 to 183 °C
Cn1cc(CCO)c2c3c(c(-c4ccccc4Cl)cc21)C(=O)NC3=O [Example 147, 4-(2-Chlorophenyl)-8-(2-hydroxyethyl)-6-methyl-6H-2,6-diaza-as-indacene-1,3-dione]	225 to 229 °C
CCc1cn(C)c2cc(-c3ccccc3Cl)c3c(c12)C(=O)NC3=O [Example 148, 4-(2-Chlorophenyl)-8-ethyl-6-methyl-6H-2,6-diaza-as-indacene-1,3-dione]	230 to 233 °C
C#Cc1cn(C)c2cc(-c3ccccc3Cl)c3c(c12)C(=O)NC3=O [Example 149, 4-(2-Chlorophenyl)-8-ethynyl-6-methyl-6H-2,6-diaza-as-indacene-1,3-dione]	125 to 129 °C
COc1ccccc1-c1cc2c(c(C#CCO)cn2C)c2c1C(=O)NC2=O [Example 150, 8-(3-Hydroxyprop-1-ynyl)-4-(2-methoxyphenyl)-6-methyl-6H-2,6-diaza-as-indacene-1,3-dione]	154 to 157 °C
Cn1cc(C#N)c2c3c(c(-c4ccccc4Cl)cc21)C(=O)NC3=O [Example 151, 4-(2-Chlorophenyl)-6-methyl-1,3-dioxo-1,2,3,6-tetrahydro-2,6-diaza-as-indacene-8-carbonitrile]	160 to 163 °C
O=C(O)CCn1cc(Br)c2c3c(c(-c4ccccc4Cl)cc21)C(=O)NC3=O [Example 165, 3-[8-Bromo-4-(2-chlorophenyl)-1,3-dioxo-2,3-dihydro-1H-2,6-diaza-as-indacen-6-yl]propionic acid]	182 to 186 °C
Cn1cc(CN2CCCC2)c2c3c(c(-c4ccccc4Cl)cc21)C(=O)NC3=O [Example 166, 4-(2-Chlorophenyl)-6-methyl-8-pyrrolidin-1-ylmethyl-6H-2,6-diaza-as-indacene-1,3-dione]	160 to 165 °C (dec.)
CN(C)Cc1cn(C)c2cc(-c3ccccc3Cl)c3c(c12)C(=O)NC3=O [Example 167, 4-(2-Chlorophenyl)-8-dimethylaminomethyl-6-methyl-6H-2,6-diaza-as-indacene-1,3-dione]	155 to 159 °C
Cn1cc(CO)c2c3c(c(-c4ccccc4Cl)cc21)C(=O)NC3=O [Example 168, 4-(2-chlorophenyl)-8-hydroxymethyl-6-methyl-6H-2,6-diaza-as-indacene-1,3-dione]	270 to 274 °C
